Literature values as cited in the PKSmart pharmacokinetics tables (Seal et al. 2025).
Where a SMILES comes first, the peptide text is derived from it. [ ]: non-standard residue; d: D form. The star is where a group is joined. ξ: configuration not given here. ξNMe2Val = CC(C)C(C(=O)*)N(C)C; NMeV = CN[CH](C(=O)O)C(C)C; NHtBu = CC(C)(C)N*

Test: Lombardo, Berellini, Obach 2018, Drug Metab Dispos 46:1466, doi 10.1124/dmd.118.082966
Conditions: human; for MRT / Vd / clearance / half-life: in vivo, iv; for fraction unbound: plasma

| SMILES | MRT [h] | Vd [L/kg] | clearance [L/h/kg] | half-life [h] | fraction unbound |
| --- | --- | --- | --- | --- | --- |
| CC(C)NC[C@@H](O)COc1cccc2c1N(C(=O)c1cccnc1)CCC2 | 3.1 | 0.67 | 0.216 | 12.4 | – |
| C=CCOc1ccccc1OC[C@H](O)CNC(C)C | 1.56 | 0.72 | 0.462 | 1.09 | 0.19 |
| CN(C)CCO[C@]1(c2ccccc2)C[C@H]2CC[C@]1(C)C2(C)C | 26.6 | 7.7 | 0.293 | 26.6 | 0.05 |
| Cn1c(=O)c2c(ncn2CC2OCCO2)n(C)c1=O | 2.5 | 1.03 | 0.41 | 1.66 | – |
| CSCO[C@H]1C[C@H]2OC[C@@]2(OC(C)=O)[C@H]2[C@H](OC(=O)c3ccccc3)[C@]3(O)C[C@H](OC(=O)C(O)C(NC(=O)c4ccccc4)c4ccccc4)C(C)=C(C(OC(C)=O)C(=O)[C@]12C)C3(C)C (some centres not stated) | 29 | 11 | 0.384 | 32 | – |
| CN(C)CCC(c1ccc(Cl)cc1)c1ccccn1 (configuration not stated) | 22 | 3.3 | 0.15 | – | – |
| CC(Oc1ccccc1)C(=O)NC1C(=O)N2C(C(=O)O)C(C)(C)S[C@H]12 (some centres not stated) | 1.2 | 0.3 | 0.252 | 0.91 | 0.25 |
| CC(=O)Nc1cccc(-n2c(=O)n(C3CC3)c(=O)c3c(Nc4ccc(I)cc4F)n(C)c(=O)c(C)c32)c1 | 304 | 13.9 | 0.048 | 229 | – |
| CC(C)(C)NC[C@H](O)COc1nsnc1N1CCOCC1 | 3 | 1.5 | 0.51 | 2.2 | – |
| CCN(CC)c1ccc2cc(C(=O)Nc3ccc4[nH]c(C(=O)N5C[C@@H](CCl)c6c5cc(OC(=O)Nc5ccccc5)c5[nH]cc(C)c65)cc4c3)oc2c1 | 0.51 | 0.09 | 0.174 | 0.48 | – |
| CCCNC(C)C(=O)Nc1ccccc1C (configuration not stated) | 2.2 | 3.7 | 1.74 | 1.8 | 0.72 |
| CN1CCN(c2ncc(-c3cc(Cl)cc(Cl)c3Cl)c(N)n2)CC1 | 12.3 | 15.3 | 1.25 | 11 | – |
| Cc1cnc(NCCCN(C)C)c2c1[nH]c1ccc3cc(O)ccc3c12 | 11 | 11 | 1.08 | 19 | – |
| CC(=O)Nc1ccc(C2=NNC(=O)CC2C)cc1 (configuration not stated) | 88 | 2.38 | 0.027 | 70 | 0.4 |
| Cc1ccccc1N1C(=O)c2cc(S(N)(=O)=O)c(Cl)cc2NC1C (configuration not stated) | 19 | 1.6 | 0.084 | 20 | – |
| CN[C@@H]1[C@@H](O)[C@@H](O[C@@H]2[C@@H](O)[C@H](O[C@H]3OC(CN)=CC[C@H]3N)[C@@H](N)C[C@H]2N)OC[C@]1(C)O | 3.2 | 0.19 | 0.06 | 2.4 | 0.15 |
| O=P(NCCCl)(NCCCl)O[C@@H]1O[C@H](CO)[C@@H](O)[C@H](O)[C@H]1O | 2.49 | 0.24 | 0.096 | 2.37 | 0.71 |
| CC1(C)O[C@@H]2[C@@H](CO[C@@]3(COS(N)(=O)=O)OC(C)(C)O[C@@H]23)O1 | 48.7 | 0.8 | 0.0162 | 34.8 | 0.72 |
| OCCN(CCc1c[nH]c2ccccc12)Cc1ccc(/C=C/C(O)=NO)cc1 | 4.78 | 2.17 | 0.456 | 12.4 | 0.23 |
| O=S(=O)(c1cccc2cnccc12)N1CCCNCC1 | 0.26 | 1.22 | – | – | – |
| Cn1c(CCCC(=O)O)nc2cc(N(CCCl)CCCl)ccc21 | 0.81 | 0.22 | 0.269 | 0.41 | 0.05 |
| CN(c1nccc(=O)[nH]1)C1CCN(c2nc3ccccc3n2Cc2ccc(F)cc2)CC1 | 6 | 0.38 | 0.0618 | 9.6 | – |
| CC(=O)C1CC[C@H]2[C@@H]3CC[C@@H]4C[C@H](O)CC[C@]4(C)[C@H]3CC[C@]12C (some centres not stated) | 1.5 | 2 | 1.32 | 4.7 | 0.01 |

| SMILES | MRT [h] | Vd [L/kg] | clearance [L/h/kg] | half-life [h] | fraction unbound |
| --- | --- | --- | --- | --- | --- |
| COc1ccc(CC2c3cc(OC)c(OC)cc3CC[N+]2(C)CCC(=O)OCCCCCOC(=O)CC[N+]2(C)CCc3cc(OC)c(OC)cc3C2Cc2ccc(OC)c(OC)c2)cc1OC (configuration not stated) | 0.29 | 0.1 | 0.342 | 0.31 | 0.52 |
| CN1CC[C@]23c4c5ccc(O)c4O[C@H]2[C@@H](O[C@@H]2OC(C(=O)O)[C@@H](O)[C@H](O)[C@H]2O)C=C[C@H]3[C@H]1C5 (some centres not stated) | 0.91 | 0.12 | 0.132 | 1.4 | 0.67 |
| O=C(O)C1=C(CSc2nnnn2CS(=O)(=O)O)CS[C@@H]2C(NC(=O)C(O)c3ccccc3)C(=O)N12 (some centres not stated) | 5.8 | 0.14 | 0.0228 | 5.1 | 0.02 |
| CCN(CC)CC(=O)Nc1c(C)cccc1C | 1.9 | – | – | – | – |
| Cc1ccc(Nc2nccc(N(C)c3ccc4c(C)n(C)nc4c3)n2)cc1S(N)(=O)=O | 44.4 | 0.16 | 0.0036 | – | 0.01 |
| Cc1[nH]c(=O)c(C#N)cc1-c1ccc2nccn2c1 | 0.97 | 0.64 | 0.66 | 1.13 | – |
| Nc1nc(OCc2cc(Br)cs2)c2[nH]cnc2n1 | – | – | 1.29 | 2.92 | – |
| COc1ccc2[nH]cc(CCNC(C)=O)c2c1 | 1.1 | 1.1 | 0.99 | 1.1 | 0.39 |
| O=P(O)(O)C(Cl)(Cl)P(=O)(O)O | 9.2 | 0.88 | 0.096 | 43.2 | 0.64 |
| CC1(C)O[C@@H]2C[C@H]3[C@@H]4CC=C5CC(=O)C=C[C@]5(C)[C@@]4(F)[C@@H](O)C[C@]3(C)[C@]2(C(=O)CO)O1 | 2.5 | 1.4 | 0.564 | 2.4 | 0.2 |
| O=c1ccc2ccc(OCCCCN3CCN(c4cccc5sccc45)CC3)cc2[nH]1 | 71 | 1.46 | 0.0204 | 54.4 | 0.002 |
| Nc1ccn([C@@H]2CO[C@H](CO)S2)c(=O)n1 | 3.6 | 0.84 | 0.234 | 8.92 | – |
| C[C@]12C[C@]3(O)O[C@@H](O1)[C@@]1(COC(=O)c4ccccc4)[C@@H]3C[C@]12O[C@@H]1O[C@H](CO)[C@@H](O)[C@H](O)[C@H]1O | – | – | – | – | 0.77 |
| O=C(O)c1ccc(-n2nc(-c3ccccc3O)nc2-c2ccccc2O)cc1 | 4.07 | 0.2 | 0.0504 | 4.05 | 0.004 |
| C#C[C@]1(O)C=C[C@H]2[C@@H]3CC=C4CC(=O)CCC4[C@H]3CC[C@@]21CC (some centres not stated) | 9.6 | 0.46 | 0.048 | 10 | 0.023 |
| CN/C(=C\[N+](=O)[O-])NCCSCc1csc(CN(C)C)n1 | 1.7 | 1 | 0.588 | 1.5 | – |
| C[C@]12CC[C@@H]3c4ccc([O-])cc4C[C@H](CCCCCCCCC[S+](O)CCCC(F)(F)C(F)(F)F)C3[C@@H]1CC[C@@H]2O (some centres not stated) | 5.86 | 4.15 | 0.708 | 16 | 0.01 |
| O=C(O)CO | 2.75 | 0.67 | 0.243 | 2.1 | 0.84 |
| CC[C@]1(O)C[C@H]2CN(CCc3c([nH]c4ccccc34)[C@@](C(=O)OC)(c3cc4c(cc3OC)N(C)[C@H]3[C@@](O)(C(N)=O)[C@H](O)[C@]5(CC)C=CCN6CC[C@]43[C@@H]65)C2)C1 | 38 | 5 | 0.132 | 35 | – |
| C#C[C@]1(O)CC[C@H]2[C@@H]3CC=C4CC(=O)CCC4[C@H]3C(=C)C[C@@]21CC (some centres not stated) | 23.6 | 2.87 | 0.12 | 25 | 0.02 |
| O=C(O)c1cccc(Cc2cc(Cl)ccc2OCc2ccc(Cl)cc2F)n1 | 6.4 | 0.77 | 0.12 | 8.15 | – |
| COc1ccc([C@@H]2Sc3cc(Cl)ccc3N(CCN(C)C)C(=O)C2OC(C)=O)cc1 (some centres not stated) | 12.3 | 9.7 | 0.822 | 10.6 | 0.1 |
| CC(C)C(NC(=O)C(C(C)C)N(C)C)C(=O)N(C)C(C(=O)N1CCCC1C(=O)N1CCCC1C(=O)NC(C)(C)C)C(C)C (configuration not stated) (ξNMe2Val-V[NMeV]PP-NHtBu; configuration not given here) | 0.58 | 0.33 | 0.576 | 0.57 | – |

| SMILES | MRT [h] | Vd [L/kg] | clearance [L/h/kg] | half-life [h] | fraction unbound |
| --- | --- | --- | --- | --- | --- |
| O[C@@H](CNC[C@H](O)[C@H]1CCc2cc(F)ccc2O1)[C@@H]1CCc2cc(F)ccc2O1 | 13 | 11 | 0.84 | 10 | 0.02 |
| CNC(=O)CC(N)C(=O)NC(C(=O)NC1C(=O)N2C(C(=O)O)C(C)(C)S[C@H]12)c1ccc(O)cc1 (some centres not stated) | 1.61 | 0.27 | 0.169 | 1.45 | – |
| CN(C)CCCN1c2ccccc2Sc2ccccc21 | 9.6 | 8.1 | 0.84 | 7.9 | 0.11 |
| NC(Cc1ccccn1)c1ccccc1 (configuration not stated) | 15.1 | 1.62 | 0.108 | 10.4 | – |
| CN(C)[C@@H]1C(O)=C(C(N)=O)C(=O)[C@@]2(O)C(O)=C3C(=O)c4c(O)c(NC(=O)CN5CCCC5)cc(F)c4C[C@H]3C[C@@H]12 | 10.3 | 2.3 | 0.223 | – | 0.18 |
| O=C1CN=C(c2ccccn2)c2cc(Br)ccc2N1 | 28 | 0.85 | 0.0306 | 21 | – |
| O=C(NC[C@H]1CN(c2ccc(N3CCOCC3=O)cc2)C(=O)O1)c1ccc(Cl)s1 | 4.9 | 0.7 | 0.144 | 7 | 0.06 |
| CC(Oc1ccc(Oc2cnc3ccc(Cl)cc3n2)cc1)C(=O)O (configuration not stated) | 63 | 0.19 | 0.003 | 48.2 | 0.0036 |
| OCCN1CCN(CC/C=C2/c3ccccc3Sc3ccc(C(F)(F)F)cc32)CC1 | – | – | 0.248 | 34.2 | – |
| CCN1CCC[C@@H]1CNC(=O)c1cc(S(N)(=O)=O)ccc1OC | 8.01 | 0.94 | 0.114 | 6.5 | – |
| Cn1c(=N)c(NC(=O)NCCN)cn1CC1=C(C(=O)O)N2C(=O)C(=NC(=O)C(NOC(C)(C)C(=O)O)c3nsc(N)n3)[C@H]2SC1 (some centres not stated) | 2.39 | 0.17 | 0.0696 | 2.58 | 0.81 |
| CC(C)(S)C(N)C(=O)O (configuration not stated) | 1.97 | 1.26 | 0.639 | 3.04 | 0.12 |
| CC1=C(CO)C2=C(C)C3(CC3)[C@@](C)(O)C(=O)C2=C1 | 0.4 | 3.1 | 8.4 | 0.3 | – |
| CCCCCCCC(=O)N[C@H](CN1CCCC1)[C@H](O)c1ccc2c(c1)OCCO2 | – | – | 1.26 | 7.7 | 0.21 |
| CCC1(c2cnc[nH]2)Cc2ccccc2C1 | 2.3 | 2.7 | 1.18 | 1.7 | – |
| CON=C(C(=O)NC1C(=O)N2C(C(=O)[O-])=C(C[N+]34CCC(C(N)=O)(CC3)CC4)CSC12)c1nsc(N)n1 (configuration not stated) | 2.6 | 0.27 | 0.102 | 2.2 | – |
| CS(=O)(=O)OCCN(CCBr)c1c(C(=O)NCCOP(=O)(O)O)cc([N+](=O)[O-])cc1[N+](=O)[O-] | 0.32 | 0.86 | 2.69 | 0.1 | – |
| O=C(/C=C/c1ccc(O)cc1)C1=C(O)[C@](O)([C@@H]2O[C@H](CO)[C@@H](O)[C@H](O)[C@H]2O)C(O)=C([C@@H]2O[C@H](CO)[C@@H](O)[C@H](O)[C@H]2O)C1=O | 3.6 | 0.2 | 0.06 | 2.9 | 0.22 |
| O=C(O)C1O[C@@H](Oc2cc3oc(-c4ccc(O)cc4)cc(=O)c3c(O)c2O)[C@H](O)[C@@H](O)[C@@H]1O (some centres not stated) | 0.31 | 0.88 | 2.79 | 1.18 | 0.1 |
| Cc1ccc(S(=O)(=O)NC(=O)N[C@H]2[C@H]3CC[C@@](C)([C@H]2O)C3(C)C)cc1 | 13 | 0.27 | 0.0204 | 9.2 | – |
| O=P(O)(O)C(Sc1ccc(Cl)cc1)P(=O)(O)O | 9.5 | 0.23 | 0.024 | 7.7 | 0.1 |
| COc1c(C)cc2c(c1O)[C@@H]1[C@@H]3Cc4c(OC(C)=O)c(C)c5c(c4[C@H](CNC(=O)/C=C/c4cccc(C(F)(F)F)c4)N3[C@@H](O)[C@H](C2)N1C)OCO5 | 17.5 | 12.6 | 0.72 | 22.2 | – |
| NC(Cc1ccc(N(CCCl)CCCl)cc1)C(=O)O (configuration not stated) | – | – | – | – | 0.14 |
